Ten compounds from patent publication US8741897B2, “Glucocorticoid mimetics, methods of making them, pharmaceutical compositions and uses thereof” (Boehringer Ingelheim Pharmaceuticals Inc., priority 2003, dated 2014) can be followed below.

The target in assay [1] is T1, human glucocorticoid receptor (GR) complex (Homo sapiens, UniProt P04150).
T1 construct: made in house; host or cells: insect expression system (baculovirus lysate)
T1 sequence (P04150 1-777): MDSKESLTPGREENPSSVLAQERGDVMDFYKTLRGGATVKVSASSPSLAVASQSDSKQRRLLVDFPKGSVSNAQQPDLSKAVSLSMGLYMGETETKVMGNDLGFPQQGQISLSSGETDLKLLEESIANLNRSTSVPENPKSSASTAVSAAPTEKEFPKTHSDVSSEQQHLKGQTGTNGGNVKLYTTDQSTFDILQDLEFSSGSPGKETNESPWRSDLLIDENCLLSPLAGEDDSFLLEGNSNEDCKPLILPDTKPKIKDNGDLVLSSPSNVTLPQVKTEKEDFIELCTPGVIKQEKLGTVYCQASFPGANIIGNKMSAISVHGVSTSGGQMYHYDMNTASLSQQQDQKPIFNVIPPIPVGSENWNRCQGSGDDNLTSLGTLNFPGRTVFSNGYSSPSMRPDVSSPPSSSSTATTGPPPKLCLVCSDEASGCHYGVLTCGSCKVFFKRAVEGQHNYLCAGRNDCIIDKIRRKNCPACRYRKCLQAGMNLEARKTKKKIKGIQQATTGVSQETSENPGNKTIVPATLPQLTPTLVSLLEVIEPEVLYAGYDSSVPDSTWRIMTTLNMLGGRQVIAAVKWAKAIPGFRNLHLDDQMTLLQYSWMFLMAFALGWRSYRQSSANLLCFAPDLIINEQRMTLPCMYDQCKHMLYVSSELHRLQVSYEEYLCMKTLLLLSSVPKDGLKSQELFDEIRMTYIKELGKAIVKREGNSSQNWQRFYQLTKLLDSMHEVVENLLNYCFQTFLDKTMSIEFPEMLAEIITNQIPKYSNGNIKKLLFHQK
Description: Glucocorticoid receptor competitive binding assay (fluorescence polarization, TAMRA-labeled dexamethasone probe). To be noted: compounds of Formula (IA). In a few lines:
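Fluorescence-polarization competition against 15 nM TAMRA-dexamethasone (stock added to the mix) for human GR complex from baculovirus lysate diluted 1:170. Buffer: 10 mM TES, 50 mM KCl, 20 mM Na2MoO4, 1.5 mM EDTA, 0.04% CHAPS, 10% glycerol, 1 mM DTT, pH 7.4. IC50 from 4-parameter logistic fit.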

Assay [2] concerns glucocorticoid receptor function. Description: one or more of the above assays (GR binding and glucocorticoid receptor cell assays: aromatase, IL-6, TAT, MMTV-Luc, IL-8, ICAM-Luc). The assay is classed as cell-based. The note with it: assay not specified per compound.

In the case of `Cc1cc(CC(O)(CC(C)(C)c2ccc(F)cc2)C(F)(F)F)cc(C)n1` (centres unmarked) [2-(2,6-Dimethylpyridin-4-ylmethyl)-1,1,1-trifluoro-4-(4-fluorophenyl)-4-methylpentan-2-ol], the “activity in the GR binding assay” value in assay [1] was “potent activity”. For the same compound, in assay [2], the “activity as agonists of the glucocorticoid receptor function in one or more of the above assays” value (shortened to “activity as agonists”) is “potent agonists”.

Regarding `Cc1ccccc1C(C)(C)CC(O)(Cc1ccnc2ccccc12)C(F)(F)F` (centres unmarked) [1,1,1-Trifluoro-4-methyl-2-quinolin-4-ylmethyl-4-o-tolylpentan-2-ol], the “activity in the GR binding assay” value in assay [1] is reported as “potent activity”. For the same compound, the “activity as agonists” value in assay [2] is “potent agonists”.

With `COc1ccc(F)cc1C(C)(C)CC(O)(Cc1cc2cc(Cl)ncc2[nH]1)C(F)(F)F` (centres unmarked) [1,1,1-Trifluoro-4-(5-fluoro-2-methoxyphenyl)-2-(5-chloro-1H-pyrrolo[2,3-c]pyridin-2-ylmethyl)-4-methylpentan-2-ol], the “activity in the GR binding assay” value in assay [1] was “potent activity”. The “activity as agonists” value in assay [2] is on record as “potent agonists”.

With `COc1ccc(F)cc1C(C)(C)CC(O)(Cc1cc2c(C)cncc2[nH]1)C(F)(F)F` (centres unmarked) [1,1,1-Trifluoro-4-(5-fluoro-2-methoxyphenyl)-4-methyl-2-(4-methyl-1H-pyrrolo[2,3-c]pyridin-2-ylmethyl)pentan-2-ol], the “activity in the GR binding assay” value in assay [1] was “potent activity”. Besides, the “activity as agonists” value in assay [2] is “potent agonists”.

With `CC(C)(CC(O)(Cc1cc2cc(C(F)(F)F)ccc2[nH]1)C(F)(F)F)c1cc(F)ccc1O` (centres unmarked) [4-Fluoro-2-[4,4,4-trifluoro-3-hydroxy-1,1-dimethyl-3-(5-trifluoromethyl-1H-indol-2-ylmethyl)butyl]phenol], in assay [1], the “activity in the GR binding assay” value is reported as “potent activity”. Besides, the “activity as agonists” value in assay [2] is “potent agonists”.

In the case of `CN(C)C(=O)c1ccc2[nH]c(CC(O)(CC(C)(C)c3cc(Br)cc4c3OCC4)C(F)(F)F)cc2c1` (centres unmarked) [2-[4-(5-Bromo-2,3-dihydrobenzofuran-7-yl)-2-hydroxy-4-methyl-2-trifluoromethylpentyl]-1H-indole-5-carboxylic acid dimethylamide], the “activity in the GR binding assay” value in assay [1] is “potent activity”. Moreover, the “activity as agonists” value in assay [2] is given as “potent agonists”.

Regarding `CC(C)(CC(O)(Cc1cc2ccncc2[nH]1)C(F)(F)F)c1cc(Br)cc2c1OCC2` (centres unmarked) [4-(5-Bromo-2,3-dihydrobenzofuran-7-yl)-1,1,1-trifluoro-4-methyl-2-(1H-pyrrolo[2,3-c]pyridin-2-ylmethyl)pentan-2-ol], the “activity in the GR binding assay” value in assay [1] is on record as “potent activity”. In addition, in assay [2], the “activity as agonists” value was “potent agonists”.

Regarding `COc1ccc(F)cc1C(C)(C)CC(O)(Cc1[nH]c2ccncc2c1C)C(F)(F)F` (centres unmarked) [1,1,1-Trifluoro-4-(5-fluoro-2-methoxyphenyl)-4-methyl-2-(3-methyl-1H pyrrolo[3,2-c]pyridin-2-ylmethyl)pentan-2-ol], the “activity in the GR binding assay” value in assay [1] is on record as “potent activity”. Further, the “activity as agonists” value in assay [2] is given as “potent agonists”.

In the case of `COc1ccc(F)cc1C(C)(C)CC(O)(Cc1cc2cc(C(=O)N3CCOCC3)ccc2[nH]1)C(F)(F)F` (centres unmarked) [{2-[4-(5-Fluoro-2-methoxyphenyl)-2-hydroxy-4-methyl-2-trifluoromethylpentyl]-1H-indol-5-yl}morpholin-4-ylmethanone], in assay [1], the “activity in the GR binding assay” value is “potent activity”. The “activity as agonists” value in assay [2] is on record as “potent agonists”.

Consider `COc1ccc(F)cc1C(C)(C)CC(O)(Cc1cc2c(C)nc(C)cc2[nH]1)C(F)(F)F` (centres unmarked) [2-(4,6-Dimethyl-1H-pyrrolo[3,2-c]pyridin-2-ylmethyl)-1,1,1-trifluoro-4-(5-fluoro-2-methoxyphenyl)-4-methylpentan-2-ol], for which, in assay [1], the “activity in the GR binding assay” value is “potent activity”. The “activity as agonists” value in assay [2] is “potent agonists”.
